Results published in paper PMC7070167, “Cell‐permeable high‐affinity tracers for Gq proteins provide structural insights, reveal distinct binding kinetics and identify small molecule inhibitors” (British Journal of Pharmacology, 2020).

Assays:
[1] = tested on: Gq signalling via endogenously expressed M3 receptor; assay: Calcium mobilization assay, carbachol-induced (M3 receptor) in 1321N1 astrocytoma cells; format: cell-based, human
Protocol: (§1) The functional activity of YM, FR, and Ebselen as Gq protein inhibitors was determined by assessing their ability to antagonize ADP‐induced calcium mobilization in 1321N1 astrocytoma cells stably transfected with the human P2Y1 receptor, which is a Gq‐coupled receptor. In addition, the compounds' inhibitory effects on Carbachol‐induced calcium mobilization were studied in the same cell line, which endogenously express the Gq‐coupled muscarinic M3 ACh receptor. The assays were performed according to a previously described procedure (Rafehi et al., 2017) using a NOVOstar microplate reader (BMG Labtech, Offenburg, Germany).

[2] = tested on: primary murine brown adipocytes; assay: Differentiation of primary murine brown adipocytes (Oil Red O, UCP-1, PPARγ); format: cell-based, mouse; settings: Ebselen 50 μM, 9 days
Protocol: Ten‐ to 12‐week‐old pregnant wild‐type C57Bl6/J mice were purchased from Charles River and housed in pathogen‐free environment under a 12‐hr light/12‐hr dark cycle having free access to standard rodent diet and water. Brown adipose tissue (BAT)‐derived mesenchymal stem cells were isolated from interscapular BAT of newborn wild‐type mice and further cultured as previously described (Klepac et al., 2016). Specifically, 170,000 cells per well were seeded in growth medium (GM; DMEM supplemented with 10% FBS and 1% penicillin–streptomycin mixture from Sigma‐Aldrich) in a six‐well plate (Day −4); 48 hr later (Day −2), GM was replaced by differentiation medium (DM), which is GM supplemented with 20‐nM insulin and 1‐nM triiodothyronine. At Day 0, cells were treated for 48 hr with BAT induction medium (DM supplemented with 0.5‐mM isobutylmethylxanthine and 1‐μM dexamethasone). For the next 5 days, cells were treated with DM that was replenished every second day. The indicated treatments were added from Day −2 to Day +7 for 9 days to the media, endothelin‐1 (ET‐1; Tocris, 10 nM), or Ebselen (50 μM). Ebselen was added 3 hr prior to ET‐1 treatment. On Day +7, differentiation of cells into mature adipocytes was analysed using Oil Red O staining of lipid droplets. Mature brown adipocytes were washed with PBS and then fixed in 4% paraformaldehyde. […]

[3] = tested on: Gq signalling via recombinantly expressed human P2Y1 receptor; assay: Calcium mobilization assay, ADP-induced (P2Y1 receptor) in 1321N1 astrocytoma cells; format: cell-based
Protocol: as §1

Gq proteins = biological target: T1, Gq proteins (Homo sapiens, UniProt P50148); assay: Competition binding at human platelet membrane preparations; settings: for inhibition or modulation of [^3H]PSB‐15900 binding by G protein inhibitors: concentrations up to 100 μM, preincubation for 3 hr
T1 construct: Native cell membrane preparations from rat brain cortex and human blood platelets; host or cells: human platelets (intact suspension or membrane preparation)
T1 sequence (P50148 1-359): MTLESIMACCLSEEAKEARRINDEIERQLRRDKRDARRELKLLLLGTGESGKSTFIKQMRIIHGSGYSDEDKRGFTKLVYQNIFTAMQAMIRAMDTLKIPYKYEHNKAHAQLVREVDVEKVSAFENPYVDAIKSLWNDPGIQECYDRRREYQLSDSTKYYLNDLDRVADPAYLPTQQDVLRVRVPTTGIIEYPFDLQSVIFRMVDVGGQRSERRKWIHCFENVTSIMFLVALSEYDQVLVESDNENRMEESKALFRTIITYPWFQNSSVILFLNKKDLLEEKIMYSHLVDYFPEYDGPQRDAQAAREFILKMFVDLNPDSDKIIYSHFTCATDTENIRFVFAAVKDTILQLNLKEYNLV
Protocol: Apheresis‐purified human thrombocyte‐plasma concentrates were centrifuged (1,000 g at 4°C for 10 min), and the supernatant was decanted and centrifuged again (at 48,400 g, 4°C, for 60 min). The supernatant was kept and used as platelet‐poor plasma for control experiments; the formed pellet was resuspended in buffer 1 (50‐mM Tris–HCl, 5‐mM EDTA, and 150‐mM NaCl) and centrifuged at 48,400 g, 4°C for 60 min. The supernatant was discarded again and the pellet was resuspended in buffer 2 (5‐mM Tris–HCl and 5‐mM EDTA). The cell suspension was homogenized using an Ultra‐Turrax® (IKA Laborechnik, Staufen, Germany) for 1 min at a speed level of 4, subsequently transferred into cryovials, and stored at −80°C before use (the preparation is stable for several months). For radioligand binding assays, 50 μg of protein per vial was used, determined by the method of Bradford (Bio‐Rad Protein Assay).
The experiments were performed in 50‐mM Tris–HCl buffer, pH 7.4. The final assay volume of 200 μl contained 5 μl of test compound in DMSO, 50 μl of [^3H]PSB‐15900 or [^3H]PSB‐16254, respectively, in buffer, 5 nM of final concentration, and 100 μl of human platelet membrane preparation (50 μg of protein) or intact human platelets (7.5 × 10^6 cells/vial). Non‐specific binding was determined in the presence of 5‐μM FR. The incubation was started by the addition of membrane preparation and was performed at 37°C for 1 hr with gentle shaking. It was terminated by rapid vacuum filtration through GF/C glass‐fibre filters using a Brandel 24‐well harvester. The filters were rinsed three times with approximately 3 ml each of ice‐cold Tris–HCl buffer, 50 mM, pH 7.4 containing 0.1% Tween 20 and 0.1% BSA, to separate bound from free radioligand. The filters were punched out and transferred to scintillation vials. Luma Safe® scintillation cocktail (2.5 ml) was added, and after 6 hr of incubation, the samples were counted for 1 min each, using a liquid scintillation counter (counting efficiency 53%). Experiments in the presence of GTP were additionally performed after preincubation of the membrane preparation with GTP for 1 hr. pIC50 and pKi values were calculated using equations for one‐site competition as implemented in GraphPad Prism 6.01 (GraphPad Inc., La Jolla, CA, USA).

[4] = tested on: Gq signalling (IP1 production) via Dq; assay: IP1 assay in brown preadipocytes expressing Gq-coupled designer GPCR (Dq), CNO; format: cell-based, mouse; settings: Ebselen 50 μM
Protocol: (§2) Intracellular concentrations of the second messenger IP1 in brown preadipocytes were quantified using the HTRF‐IP1 kit (Cisbio Bioassays) following the manufacturer's instructions. […] For ET‐1 experiments, non‐transduced preadipocytes were used. Cells were cultivated for 48 hr in GM (37°C, 5% CO2). For the assay, cells were trypsinized, and cell pellet was washed with PBS. Cell pellet was then resuspended in stimulation buffer containing 50‐mM LiCl and transferred to a 384‐well microtitre plate at a density of 100,000 cells per well in 7 μl of stimulation buffer. After 10 min of incubation, 3.5 μl of stimulation buffer containing inhibitors (50 μM of Ebselen, 1 μM of FR) were added for 1 hr followed by addition of 3.5 μl of stimulation buffer containing agonists (ET‐1, 10 nM; CNO, 10 μM) for 30 min; 3 μl of IP1‐d2 conjugate followed by 3 μl of europium cryptate‐labelled anti‐IP1 antibody dissolved in lysis buffer were added to the cells. After a further dark incubation of 1 hr at room temperature, time‐resolved fluorescence was measured at 620 and 665 nm with the EnSpire (Perkin Elmer) multimode plate reader.

[5] = tested on: Gq signalling (IP1 production) induced by ET‐1; assay: IP1 assay in brown preadipocytes, ET-1; format: cell-based, mouse; settings: Ebselen 50 μM pretreatment, ET‐1 10 nM
Protocol: as §2

O=c1c2ccccc2[se]n1-c1ccccc1 [Ebselen]
extent of block of carbachol‐induced calcium mobilization [1]: completely blocked
IC50 ([1]; Homo sapiens, versus Carbachol (EC80), M3 receptor, read-out: pIC50, inhibition of calcium mobilization (converted)): 4.37 µM
effect on differentiation of brown adipocytes [2]: enhanced
effect on ET‐1‐induced inhibition of brown adipogenesis ([2]; ET‐1 10 nM): rescued
IC50 ([3]; Homo sapiens, versus ADP (EC80), P2Y1 receptor, 1321N1 astrocytoma cells, read-out: pIC50, inhibition of calcium mobilization (converted)): 2.34 µM
extent of block of ADP‐induced calcium mobilization ([3]; recombinant 1321N1 astrocytoma cells): completely blocked
Ki (Gq proteins; versus [^3H]PSB‐15900 (5 nM), human platelet membranes, 37°C, read-out: pKi (converted)): 9.33 µM
effect on CNO‐induced increase in IP1 levels ([4]; CNO 10 μM, Gq‐DREADD expressing preadipocytes): significantly reduced
effect on basal IP1 levels ([4]; absence of agonist (Ctrl), acute treatment): did not affect
effect on ET‐1‐induced IP1 production [5]: attenuated

Nc1nc2c(ncn2[C@@H]2O[C@H](COP(=O)(O)OP(=O)(O)OP(=O)(O)O)[C@@H](O)[C@H]2O)c(=O)[nH]1 [GTP]
modulation of [^3H]PSB‐15900 binding by nucleotides (Gq proteins; 100 μM and 1 mM, human platelet membranes, 5 nM radioligand): not allosterically modulated

N[C@@H](CS)C(=O)N1CCn2cc(-c3ccccc3)nc2[C@@H]1CC1CCCCC1 [BIM‐46174]
inhibition or modulation of [^3H]PSB‐15900 binding by G protein inhibitors (Gq proteins): did not show any inhibition or modulation

N[C@@H](CSSC[C@H](N)C(=O)N1CCn2cc(-c3ccccc3)nc2[C@@H]1CC1CCCCC1)C(=O)N1CCn2cc(-c3ccccc3)nc2[C@@H]1CC1CCCCC1 [BIM‐46187]
inhibition or modulation of [^3H]PSB‐15900 binding by G protein inhibitors (Gq proteins): did not show any inhibition or modulation
